US10131652B2, “Pyrimidinyloxy benzene derivatives as herbicides” (E. I. DU PONT DE NEMOURS AND COMPANY, priority 2014, dated 2018)
Read-outs that look alike come from different tables or passages of the source.

Tests used:
Assay type in all cases: in vivo
[1] = test system: barnyardgrass (Echinochloa crus-galli); test: Test C flooded paddy test plant response; conditions: Echinochloa crus-galli; Flood, 250 g ai/ha; scale of 0 to 100 where 0 is no effect and 100 is complete control; 13 to 15 days; read-out: Barnyardgrass plant response rating
How it was run: (§1)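 Scale 0 (no effect) to 100 (complete control), assigned visually versus controls after 13–15 d greenhouse. Application: directly to paddy water, 3 cm flood depth kept constant, 2-leaf stage.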

[2] = test system: ducksalad (Heteranthera limosa); test: Test C flooded paddy test plant response; conditions: Heteranthera limosa; Flood, 250 g ai/ha; scale of 0 to 100 where 0 is no effect and 100 is complete control; 13 to 15 days; read-out: Ducksalad plant response rating
How it was run: as §1

rice (Oryza sativa) = test: Test C flooded paddy test plant response; conditions: Oryza sativa; Flood, 250 g ai/ha; scale of 0 to 100 where 0 is no effect and 100 is complete control; 13 to 15 days; read-out: Rice plant response rating
How it was run: as §1

[3] = test system: small-flower umbrella sedge (Cyperus difformis); test: Test C flooded paddy test plant response; conditions: Cyperus difformis; Flood, 250 g ai/ha; scale of 0 to 100 where 0 is no effect and 100 is complete control; 13 to 15 days; read-out: Sedge, Umbrella plant response rating
How it was run: as §1

[4] = test system: Italian ryegrass (Lolium multiflorum); test: Test D pre-/postemergence plant response; conditions: Lolium multiflorum; for pest or weed control at 16 g/ha: 16 g ai/ha; for pest or weed control at 31 g/ha: 31 g ai/ha; for pest or weed control at 62 g/ha: 62 g ai/ha; for pest or weed control at 125 g/ha: 125 g ai/ha
How it was run: (§2)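 Visual injury scoring (0–100) at 13 to 15 days in greenhouse. Preemergence sprays on seeded loam/sand; postemergence sprays on 1–4 leaf plants.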

corn (Zea mays) = test: Test D pre-/postemergence plant response; conditions: Zea mays; for Corn plant response rating (crop injury, 0 = no effect, 100 = complete kill) at 62 g/ha: 62 g ai/ha
How it was run: as §2

[5] = test system: galium (catchweed bedstraw, Galium aparine); test: Test D pre-/postemergence plant response; conditions: Galium; for pest or weed control at 16 g/ha: 16 g ai/ha; for pest or weed control at 31 g/ha: 31 g ai/ha; for pest or weed control at 62 g/ha: 62 g ai/ha; for pest or weed control at 125 g/ha: 125 g ai/ha
How it was run: as §2

[6] = test system: lambsquarters (Chenopodium album); test: Test D pre-/postemergence plant response; conditions: Chenopodium album; for pest or weed control at 16 g/ha: 16 g ai/ha; for pest or weed control at 31 g/ha: 31 g ai/ha; for pest or weed control at 62 g/ha: 62 g ai/ha; for pest or weed control at 125 g/ha: 125 g ai/ha
How it was run: as §2

[7] = test system: oilseed rape (Brassica napus); test: Test D pre-/postemergence plant response; conditions: Brassica napus; for plant injury at 16 g/ha: 16 g ai/ha; for plant injury at 31 g/ha: 31 g ai/ha; for plant injury at 62 g/ha: 62 g ai/ha; for plant injury at 125 g/ha: 125 g ai/ha
How it was run: as §2

[8] = test system: velvetleaf (Abutilon theophrasti); test: Test D pre-/postemergence plant response; conditions: Abutilon theophrasti; for pest or weed control at 16 g/ha: 16 g ai/ha; for pest or weed control at 31 g/ha: 31 g ai/ha; for pest or weed control at 62 g/ha: 62 g ai/ha; for pest or weed control at 125 g/ha: 125 g ai/ha
How it was run: as §2

[9] = test system: winter wheat (Triticum aestivum); test: Test D pre-/postemergence plant response; conditions: Triticum aestivum; for plant injury at 16 g/ha: 16 g ai/ha; for plant injury at 31 g/ha: 31 g ai/ha; for plant injury at 62 g/ha: 62 g ai/ha; for plant injury at 125 g/ha: 125 g ai/ha
How it was run: as §2

[10] = post-emergence, Postemergence, scale 0 to 100 (0 no effect, 100 complete control), read-out: Ryegrass, Italian plant response rating
[11] = post-emergence, Postemergence, scale 0 to 100, 0 no effect, 100 complete control, read-out: Plant response rating, Ryegrass, Italian
[12] = pre-emergence, Preemergence, scale 0 to 100 (0 no effect, 100 complete control), read-out: Plant response rating, Ryegrass, Italian
[13] = post-emergence, Postemergence, scale 0 to 100 (0 no effect, 100 complete control), read-out: Galium plant response rating
[14] = post-emergence, Postemergence, scale 0 to 100, 0 no effect, 100 complete control, read-out: Plant response rating, Galium
[15] = pre-emergence, Preemergence, scale 0 to 100 (0 no effect, 100 complete control), read-out: Plant response rating, Galium
[16] = post-emergence, Postemergence, scale 0 to 100 (0 no effect, 100 complete control), read-out: Lambsquarters plant response rating
[17] = post-emergence, Postemergence, scale 0 to 100, 0 no effect, 100 complete control, read-out: Plant response rating, Lambsquarters
[18] = pre-emergence, Preemergence, scale 0 to 100 (0 no effect, 100 complete control), read-out: Plant response rating, Lambsquarters
[19] = post-emergence, Postemergence, scale 0 to 100 (0 no effect, 100 complete control), read-out: Oilseed Rape plant response rating
[20] = post-emergence, Postemergence, scale 0 to 100, 0 no effect, 100 complete control, read-out: Plant response rating, Oilseed Rape
[21] = pre-emergence, Preemergence, scale 0 to 100 (0 no effect, 100 complete control), read-out: Plant response rating, Oilseed Rape
[22] = post-emergence, Postemergence, scale 0 to 100 (0 no effect, 100 complete control), read-out: Velvetleaf plant response rating
[23] = post-emergence, Postemergence, scale 0 to 100, 0 no effect, 100 complete control, read-out: Plant response rating, Velvetleaf
[24] = pre-emergence, Preemergence, scale 0 to 100 (0 no effect, 100 complete control), read-out: Plant response rating, Velvetleaf
[25] = post-emergence, Postemergence, scale 0 to 100 (0 no effect, 100 complete control), read-out: Wheat plant response rating
[26] = post-emergence, Postemergence, scale 0 to 100, 0 no effect, 100 complete control, read-out: Plant response rating, Wheat
[27] = pre-emergence, Preemergence, scale 0 to 100 (0 no effect, 100 complete control), read-out: Plant response rating, Wheat

`FC(F)(F)c1cc(-c2ccccc2Oc2ncc(Cl)cn2)on1` [Compound 63, 5-chloro-2-[2-[3-(trifluoromethyl)-5-isoxazolyl]phenoxy]pyrimidine] was tested, and the pest or weed control at 250 g/ha [1] was 60%, the pest or weed control at 250 g/ha [2] was 100% and the plant injury at 250 g/ha (rice (Oryza sativa)) was 25%. The pest or weed control at 250 g/ha [3] was 85%, the pest or weed control at 16 g/ha [4, 10] was 0% and the pest or weed control at 31 g/ha [4, 10] was 0%. For the same molecule, the pest or weed control at 62 g/ha [4, 11] was 5%, the pest or weed control at 125 g/ha [4, 11] was 30% and the pest or weed control at 125 g/ha ([4]; pre-emergence, Preemergence, read-out: Plant response rating (scale 0 to 100), Ryegrass, Italian) was 90%. For the same molecule, the pest or weed control at 16 g/ha [4, 12] was 0%, the pest or weed control at 31 g/ha [4, 12] was 40% and the pest or weed control at 62 g/ha [4, 12] was 80%. The plant injury at 16 g/ha (corn (Zea mays); post-emergence, Postemergence, 16 g ai/ha, scale 0 to 100 (0 no effect, 100 complete control), read-out: Corn plant response rating) was 5%, the plant injury at 31 g/ha (corn (Zea mays); post-emergence, Postemergence, 31 g ai/ha, scale 0 to 100 (0 no effect, 100 complete control), read-out: Corn plant response rating) was 5% and the Corn plant response rating (crop injury, 0 = no effect, 100 = complete kill) at 62 g/ha (corn (Zea mays); post-emergence, Postemergence, scale 0 to 100, 0 no effect, 100 complete control) was 5%. It also gave a Corn plant response rating (crop injury, 0 = no effect, 100 = complete kill) at 125 g/ha (corn (Zea mays); post-emergence, Postemergence, 125 g ai/ha, scale 0 to 100, 0 no effect, 100 complete control) of 10%, a plant injury at 125 g/ha (corn (Zea mays); pre-emergence, Preemergence, 125 g ai/ha, read-out: Plant response rating (scale 0 to 100), Corn) of 15% and a Corn plant response rating (crop injury, 0 = no effect, 100 = complete kill) at 16 g/ha (corn (Zea mays); pre-emergence, Preemergence, 16 g ai/ha, scale 0 to 100 (0 no effect, 100 complete control)) of 0%. For the same molecule, the Corn plant response rating (crop injury, 0 = no effect, 100 = complete kill) at 31 g/ha (corn (Zea mays); pre-emergence, Preemergence, 31 g ai/ha, scale 0 to 100 (0 no effect, 100 complete control)) was 5%, the Corn plant response rating (crop injury, 0 = no effect, 100 = complete kill) at 62 g/ha (corn (Zea mays); pre-emergence, Preemergence, scale 0 to 100 (0 no effect, 100 complete control)) was 15% and the pest or weed control at 16 g/ha [5, 13] was 60%. It also gave a pest or weed control at 31 g/ha [5, 13] of 70%, a pest or weed control at 62 g/ha [5, 14] of 70% and a pest or weed control at 125 g/ha [5, 14] of 70%. The pest or weed control at 125 g/ha ([5]; pre-emergence, Preemergence, read-out: Plant response rating (scale 0 to 100), Galium) was 98%, the pest or weed control at 16 g/ha [5, 15] was 75% and the pest or weed control at 31 g/ha [5, 15] was 98%. The pest or weed control at 62 g/ha [5, 15] was 98%, the pest or weed control at 16 g/ha [6, 16] was 10% and the pest or weed control at 31 g/ha [6, 16] was 70%. The pest or weed control at 62 g/ha [6, 17] was 85%, the pest or weed control at 125 g/ha [6, 17] was 90% and the pest or weed control at 125 g/ha ([6]; pre-emergence, Preemergence, read-out: Plant response rating (scale 0 to 100), Lambsquarters) was 95%. It also gave a pest or weed control at 16 g/ha [6, 18] of 95%, a pest or weed control at 31 g/ha [6, 18] of 90% and a pest or weed control at 62 g/ha [6, 18] of 90%. It also gave a plant injury at 16 g/ha [7, 19] of 60%, a plant injury at 31 g/ha [7, 19] of 90% and a plant injury at 62 g/ha [7, 20] of 98%. For the same molecule, the plant injury at 125 g/ha [7, 20] was 100%, the plant injury at 125 g/ha ([7]; pre-emergence, Preemergence, read-out: Plant response rating (scale 0 to 100), Oilseed Rape) was 98% and the plant injury at 16 g/ha [7, 21] was 70%. For the same molecule, the plant injury at 31 g/ha [7, 21] was 98%, the plant injury at 62 g/ha [7, 21] was 98% and the pest or weed control at 16 g/ha [8, 22] was 10%. It also gave a pest or weed control at 31 g/ha [8, 22] of 25%, a pest or weed control at 62 g/ha [8, 23] of 40% and a pest or weed control at 125 g/ha [8, 23] of 40%. It also gave a pest or weed control at 125 g/ha ([8]; pre-emergence, Preemergence, read-out: Plant response rating (scale 0 to 100), Velvetleaf) of 100%, a pest or weed control at 16 g/ha [8, 24] of 40% and a pest or weed control at 31 g/ha [8, 24] of 100%. The pest or weed control at 62 g/ha [8, 24] was 100%, the plant injury at 16 g/ha [9, 25] was 0% and the plant injury at 31 g/ha [9, 25] was 0%. For the same molecule, the plant injury at 62 g/ha [9, 26] was 5%, the plant injury at 125 g/ha [9, 26] was 5% and the plant injury at 125 g/ha ([9]; pre-emergence, Preemergence, read-out: Plant response rating (scale 0 to 100), Wheat) was 45%. It also gave a plant injury at 16 g/ha [9, 27] of 0%, a plant injury at 31 g/ha [9, 27] of 0% and a plant injury at 62 g/ha [9, 27] of 10%.
